For data set [1], the system named is stage IIIb/IV non-small cell lung cancer. Put plainly: Example 3: clinical study, efficacy (overall survival, response rate), Arm DN vs Arm D. The data set is classed as in vivo, human (NSCLC patients). The note with it: for OS / Response Rate: Arm DN (30 mg/m^2) vs Arm D. As for the experimental part:
(§1) The investor applied the optimum plinabulin and docetaxel combination treatment schedule derived from MV522 animal studies in NSCLC patients. Patients received therapy on Day 1 and Day 8 in 3-week cycles. Therapy on Day 1 consisted of 75 mg/m^2 docetaxel administered via intravenous infusion (IV) over 1 hour, followed 2 hours later (from the time the docetaxel infusion begins) by 30 mg/m^2 plinabulin administered via intravenous infusion (IV) over 30 minutes. Therapy on Day 8 consisted of 20 mg/m^2 or 30 mg/m^2 plinabulin administered via intravenous infusion (IV) over 30 minutes.
To compare the overall survival of patients with NSCLC treated with docetaxel to patients treated with docetaxel+plinabulin.
Secondary: • 1. To compare the response rate, duration of response, 6-month survival, and progression free survival in patients with NSCLC treated with docetaxel to patients with docetaxel+plinabulin; • 2. To compare the safety and adverse events profile of docetaxel to docetaxel+plinabulin.
(§2) This was an open-label study in patients with advanced NSCLC that had progressed after treatment with at least 1 chemotherapy regimen. Patients were randomized to receive either docetaxel plus plinabulin (DN) or docetaxel alone (75 mg/m^2) (D). 2 dosing cohorts were investigated: • 1) 30 mg/m^2 dosing cohort: Approximately 110 patients were to be randomized (1:1) to receive either docetaxel plus plinabulin at 30 mg/m^2 (DN 30 mg/m^2 arm) or docetaxel alone (D arm); • 2) 20 mg/m^2 dosing cohort: Approximately 57 patients were to be randomized (2:1) to receive either docetaxel plus plinabulin at 20 mg/m^2 (DN 20 mg/m^2 arm) or docetaxel (D arm) alone.
(§3) Patients received therapy on Day 1 and Day 8 in 3-week cycles.
(§4) Therapy on Day 1 consisted of 75 mg/m^2 docetaxel administered via intravenous infusion (IV) over 1 hour, followed 2 hours later (from the time the docetaxel infusion began) by placebo (Arm D) or 30 mg/m^2 or 20 mg/m^2 plinabulin (Arm DN) DN administered via intravenous infusion (IV) over 30 minutes. Oral dexamethasone (16 mg) was given the day prior to, the day of and the day following docetaxel infusion (Day 1). Therapy on Day 8 consisted of placebo (Arm D) or 30 mg/m^2 or 20 mg/m^2 plinabulin (Arm DN) administered via intravenous infusion (IV) over 30 minutes.
Patients with stage IIIb/IV non-small cell lung cancer that has progressed after treatment with at least one chemotherapy regimen.
Assessment of response to treatment occurred during the rest period of the second cycle (and approximately every 2 cycles thereafter).
Comparisons were made of efficacy endpoints between Arm D and Arm DN. The primary efficacy endpoint is overall survival. Secondary endpoints include response rate, duration of response, quality of life, neutropenia rate and G-CSF usage.
The distributions of overall survival and any other time-to-event endpoints were summarized using the Kaplan-Meier method. The log-rank test was used to compare the efficacy endpoints between treatment groups. All statistical tests were carried out using one-sided tests at the 5% level of significance. The primary objective of this trial is to assess the effect of the addition of plinabulin on overall survival.

The subject of another data set is NSCLC. The note with it: wide type NSCLC patients (stage IIIb/IV, second line), docetaxel 75 mg/m^2; cited from earlier work.
Data set [2] in a line: Example 3: clinical study, safety (docetaxel dose reduction, neutropenia rate, G-CSF use), Arm DN vs Arm D. The data set is classed as in vivo, human (NSCLC patients). As for the experimental part: as §1, §2, §3, §4
In patients experiencing drug related Grade >2 treatment emergent adverse events (except alopecia, anorexia, and fatigue) according to the CTCAE (v3.0) treatment may be delayed until the adverse event has recovered to <Grade 1.
The initial dose of plinabulin was 30 mg/m^2 or 20 mg/m^2. Dose adjustments depended on observed adverse events. Volume of administration varied based on assigned dose and patient body surface area. The clinical formulation were supplied as a concentrated solution in 40% Solutol® HS-15/60% propylene glycol in amber vials containing 80 mg of drug in 20 mL (4 mg/mL) and were stored at room temperature. Each vial was designated for single use. The correct volume of drug (at a concentration of 4 mg/mL in the vial) was diluted in dextrose 5% in water (D5W) at a dilution of 1:20 and administered IV peripherally or centrally. Infusion time may be increased as clinically indicated at the direction of the Sponsor. Plinabulin and placebo must be protected from light at all times including storage, dilution and administration. Plinabulin and placebo should be administered within 6 hours of dilution.
The initial dose of docetaxel was 75 mg/m^2. Dose adjustments depended on observed adverse events.
Comparisons were made of efficacy endpoints between Arm D and Arm DN. The primary efficacy endpoint is overall survival. Secondary endpoints include response rate, duration of response, quality of life, neutropenia rate and G-CSF usage. […]
All patients were evaluated for safety analysis if they received at least one dose of study drug. […]

Molecules are shown by their SMILES.

Turning to `CC(=O)O[C@@]12CO[C@@H]1C[C@H](O)[C@@]1(C)C(=O)[C@H](O)C3=C(C)[C@@H](OC(=O)[C@H](O)[C@@H](NC(=O)OC(C)(C)C)c4ccccc4)C[C@@](O)([C@@H](OC(=O)c4ccccc4)[C@H]21)C3(C)C` [Docetaxel, docetaxel], the “Overall survival (OS)” value in data set [1] (30 mg/m^2 group, all patients, docetaxel 75 mg/m^2) came to 7.5 M; in data set [1] (subgroup all tumor <3 cm, plinabulin 30 mg/m^2), 6.47 M; in data set [1] (subgroup at least one tumor with diameter greater than 3 cm, plinabulin 30 mg/m^2), 7.8 M. Also, the OS was 7.5 month in data set [1] (All Patients); 7.5 month in data set [1] (largest primary tumor >3 cm); 6.7 month in data set [1] (largest primary tumor >5 cm); 5.03 month in data set [1] (largest primary tumor >7 cm); 6.5 month in data set [1] (largest primary tumor ≤3 cm); 8.2 months in the data set with NSCLC. For the same molecule, the “Response Rate” value in data set [1] (All Patients) stood at 14.5%; in data set [1] (largest primary tumor >3 cm), 13.9%; in data set [1] (largest primary tumor >5 cm), 15%; in data set [1] (largest primary tumor >7 cm), 20%; in data set [1] (largest primary tumor ≤3 cm) it was 15.8%. Besides, the “Patients requiring docetaxel dose reductions” value in data set [2] (20 mg/m^2 plinabulin cohort and companion D arm) was found to be 22.2%. Besides, the “Patients with docetaxel dose decrease from initial 75 mg/m^2” value in data set [2] (30 mg/m^2 plinabulin cohort and matched docetaxel alone arm) is reported as 18.2%. Besides, the Incidence of neutropenia in data set [2] (DN 20 mg/m^2 arm vs companion D arm) is reported as 22.2%; in data set [2] (DN 30 mg/m^2 arm vs companion D arm) it was 36.4%. Also, the “Incidence of ≥Grade 3 neutropenia” value in data set [2] (pooled D arm (n=73)) came to 27.4%.
